Values joined by “and” are separate entries in the source; they are usually repeats but may differ in a detail not shown here. Equal entries are not always repeated.
Tested on: 323965-272-R-J2-PDC complex spheroid viability
Assay: Anticancer human tumor 323965-272-R-J2-PDC patient-derived pancreatic carcinoma cell line growth inhibition [CLK]
Conditions: for viability, T/C: stronger effect = lower value; active means viability on the fitted dose curve at most 10% of control; inactive means the rest
How it was run: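 Multi-cell-type spheroids combined patient-derived tumor cells with HUVEC endothelial cells and human mesenchymal stem cells. Paired agents were dosed in half-log steps down from about clinical Cmax, or from 10 microM where Cmax was unknown.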

[1] = curve of first compound, second compound 0.0316 µM
[2] = curve of first compound, second compound 0.1 µM
[3] = curve of first compound, second compound 0.316 µM
[4] = curve of first compound, second compound 1 µM
[5] = curve of first compound, second compound 3.16 µM
[6] = curve of first compound, second compound 10 µM
[7] = second compound 0.0316 µM, first compound 0.0316 µM
[8] = second compound 0.0316 µM, first compound 0.1 µM
[9] = second compound 0.0316 µM, first compound 0.316 µM
[10] = second compound 0.0316 µM, first compound 1 µM
[11] = second compound 0.0316 µM, first compound 3.16 µM
[12] = second compound 0.0316 µM, first compound 10 µM
[13] = second compound 0.1 µM, first compound 0.0316 µM
[14] = second compound 0.1 µM, first compound 0.1 µM
[15] = second compound 0.1 µM, first compound 0.316 µM
[16] = second compound 0.1 µM, first compound 1 µM
[17] = second compound 0.1 µM, first compound 3.16 µM
[18] = second compound 0.1 µM, first compound 10 µM
[19] = second compound 0.316 µM, first compound 0.0316 µM
[20] = second compound 0.316 µM, first compound 0.1 µM
[21] = second compound 0.316 µM, first compound 0.316 µM
[22] = second compound 0.316 µM, first compound 1 µM
[23] = second compound 0.316 µM, first compound 3.16 µM
[24] = second compound 0.316 µM, first compound 10 µM
[25] = second compound 1 µM, first compound 0.0316 µM
[26] = second compound 1 µM, first compound 0.1 µM
[27] = second compound 1 µM, first compound 0.316 µM
[28] = second compound 1 µM, first compound 1 µM
[29] = second compound 1 µM, first compound 3.16 µM
[30] = second compound 1 µM, first compound 10 µM
[31] = second compound 3.16 µM, first compound 0.0316 µM
[32] = second compound 3.16 µM, first compound 0.1 µM
[33] = second compound 3.16 µM, first compound 0.316 µM
[34] = second compound 3.16 µM, first compound 1 µM
[35] = second compound 3.16 µM, first compound 3.16 µM
[36] = second compound 3.16 µM, first compound 10 µM
[37] = second compound 10 µM, first compound 0.0316 µM
[38] = second compound 10 µM, first compound 0.1 µM
[39] = second compound 10 µM, first compound 0.316 µM
[40] = second compound 10 µM, first compound 1 µM
[41] = second compound 10 µM, first compound 3.16 µM
[42] = second compound 10 µM, first compound 10 µM
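Further: spheroids exposed to agents for seven days before readout.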
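Wherever viability, T/C is given: percent of DMSO vehicle control wells so 100% = untreated growth.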

Nc1ccn(C2OC(CO)C(O)C2(F)F)c(=O)n1 (stereo not drawn) + CN1CCN(c2cc(C(=O)Nc3cc4cc(-c5cnn(C)c5)ccc4cn3)ccn2)CC1
< 31.6 nM: IC50 [1] | IC50 [2] | IC50 [3] | IC50 [4] | IC50 [5] | IC50 [6]
active: viability, T/C [25] 2.74% | viability, T/C [26] 3.71% | viability, T/C [27] 5.04% | viability, T/C [28] 3.41% | viability, T/C [29] 3.52% | viability, T/C [30] 1.82% | viability, T/C [31] 3.79% | viability, T/C [32] 4.62% | viability, T/C [33] 5.76% | viability, T/C [34] 4.04% | viability, T/C [35] 4.01% | viability, T/C [36] 6.04% | viability, T/C [37] 3.95% | viability, T/C [38] 5.3% | viability, T/C [39] 4.73% | viability, T/C [40] 4.61% | viability, T/C [41] 5.93% | viability, T/C [42] 4.49%
inactive: viability, T/C [7] 35.2% | viability, T/C [8] 30.6% | viability, T/C [9] 33.9% | viability, T/C [10] 36.6% | viability, T/C [11] 25.3% | viability, T/C [12] 24.8% | viability, T/C [13] 31.1% | viability, T/C [14] 29.9% | viability, T/C [15] 28.6% | viability, T/C [16] 23% | viability, T/C [17] 20.9% | viability, T/C [18] 19.5% | viability, T/C [19] 18.4% | viability, T/C [20] 20.2% | viability, T/C [21] 16.6% | viability, T/C [22] 19.8% | viability, T/C [23] 15.2% | viability, T/C [24] 13.6%

C#Cc1c(F)ccc2cc(O)cc(-c3ncc4c(N5CC6CCC(C5)N6)nc(OCC56CCCN5CC(F)C6)nc4c3F)c12 (stereo not drawn) + CNC(=O)c1ccc(Nc2nc(OC3CCCC3)c3c(-c4ccc5nc(C)oc5c4)c[nH]c3n2)c(OC)c1
inactive: viability, T/C [7] 92.6% | viability, T/C [8] 88.8% | viability, T/C [9] 98.8% | viability, T/C [10] 74.3% | viability, T/C [11] 62.6% | viability, T/C [12] 51.4% | viability, T/C [13] 75% | viability, T/C [14] 77.9% | viability, T/C [15] 62.5% | viability, T/C [16] 58.7% | viability, T/C [17] 47.8% | viability, T/C [18] 38.6% | viability, T/C [19] 58.9% | viability, T/C [20] 59.8% | viability, T/C [21] 51.9% | viability, T/C [22] 49.3% | viability, T/C [23] 35.8% | viability, T/C [24] 32.3% | viability, T/C [25] 43.2% | viability, T/C [26] 37.7% | viability, T/C [27] 42.4% | viability, T/C [28] 39.3% | viability, T/C [29] 30.8% | viability, T/C [30] 23.2% | viability, T/C [31] 36.5% | viability, T/C [32] 43.9% | viability, T/C [33] 36.8% | viability, T/C [34] 33.5% | viability, T/C [35] 26% | viability, T/C [36] 20.2% | viability, T/C [37] 39.6% | viability, T/C [38] 38.2% | viability, T/C [39] 38.1% | viability, T/C [40] 29.8% | viability, T/C [41] 25.7% | viability, T/C [42] 19.6%
> 10000 nM: IC50 [1]
< 31.6 nM: IC50 [4] | IC50 [5] | IC50 [6]
633 nM: IC50 [3]
2630 nM: IC50 [2]

Cn1ncnc1[C@H]1c2n[nH]c(=O)c3cc(F)cc(c23)N[C@@H]1c1ccc(F)cc1
inactive: viability, T/C (compound 0.000316 µM) 108% and 106% | viability, T/C (compound 0.001 µM) 108% and 97.8% | viability, T/C (compound 0.00316 µM) 101% and 105% | viability, T/C (compound 0.01 µM) 104% and 99.3% | viability, T/C (compound 0.0316 µM) 114% and 94.7% | viability, T/C (compound 0.1 µM) 83.6% and 74.6%
> 100 nM: IC50 (curve of compound)

CC(CO)NC(=O)c1cc(-c2ccc(Cl)cc2)nn(-c2cnn(C)c2)c1=O (stereo not drawn) + CNC(=O)c1ccc(Nc2nc(OC3CCCC3)c3c(-c4ccc5nc(C)oc5c4)c[nH]c3n2)c(OC)c1
< 31.6 nM: IC50 [4] | IC50 [5] | IC50 [6]
inactive: viability, T/C [7] 122% | viability, T/C [8] 85.6% | viability, T/C [9] 100% | viability, T/C [10] 101% | viability, T/C [11] 102% | viability, T/C [12] 103% | viability, T/C [13] 81.2% | viability, T/C [14] 80.5% | viability, T/C [15] 76.5% | viability, T/C [16] 73.7% | viability, T/C [17] 76.9% | viability, T/C [18] 72.1% | viability, T/C [19] 60% | viability, T/C [20] 67.4% | viability, T/C [21] 67.1% | viability, T/C [22] 57.8% | viability, T/C [23] 61% | viability, T/C [24] 53.4% | viability, T/C [25] 50.8% | viability, T/C [26] 41.2% | viability, T/C [27] 42.2% | viability, T/C [28] 51.1% | viability, T/C [29] 51.6% | viability, T/C [30] 48.7% | viability, T/C [31] 41.8% | viability, T/C [32] 42.5% | viability, T/C [33] 40.1% | viability, T/C [34] 35.5% | viability, T/C [35] 44.4% | viability, T/C [36] 47.1% | viability, T/C [37] 43.2% | viability, T/C [38] 40.4% | viability, T/C [39] 36.8% | viability, T/C [40] 43.1% | viability, T/C [41] 41.5% | viability, T/C [42] 41.4%
> 10000 nM: IC50 [1] | IC50 [2] | IC50 [3]

— PubChem BioAssay AID2060619 (Molecular Pharmacology Branch, DTP, NCI, 2025)
